Columns and labels:
Experiment in all cases: fluorescence, kynuramine to 4-hydroxyquinoline
Format in all cases: biochemical
MAO-A = molecular target: T1, MAO-A (Homo sapiens, UniProt P21397)
T1 construct: gene MAOA; human recombinant enzyme
T1 sequence (P21397 1-527): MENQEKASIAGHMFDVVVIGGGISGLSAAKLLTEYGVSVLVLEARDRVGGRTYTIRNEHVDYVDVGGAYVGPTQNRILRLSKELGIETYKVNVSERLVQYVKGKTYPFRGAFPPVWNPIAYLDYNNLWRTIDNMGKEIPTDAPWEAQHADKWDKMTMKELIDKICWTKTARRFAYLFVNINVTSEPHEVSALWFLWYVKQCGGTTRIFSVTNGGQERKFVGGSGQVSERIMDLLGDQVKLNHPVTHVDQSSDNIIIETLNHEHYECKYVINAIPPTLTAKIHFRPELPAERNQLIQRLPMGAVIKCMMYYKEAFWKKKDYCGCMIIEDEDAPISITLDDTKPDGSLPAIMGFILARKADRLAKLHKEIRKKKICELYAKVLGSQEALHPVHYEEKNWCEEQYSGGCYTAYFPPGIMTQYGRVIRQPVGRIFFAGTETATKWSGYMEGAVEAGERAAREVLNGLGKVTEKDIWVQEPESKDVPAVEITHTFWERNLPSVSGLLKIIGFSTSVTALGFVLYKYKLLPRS

MAO-B [1] = molecular target: T2, MAO-B (Homo sapiens, UniProt P27338)
T2 construct: gene MAOB; human recombinant enzyme
T2 sequence (P27338 2-520): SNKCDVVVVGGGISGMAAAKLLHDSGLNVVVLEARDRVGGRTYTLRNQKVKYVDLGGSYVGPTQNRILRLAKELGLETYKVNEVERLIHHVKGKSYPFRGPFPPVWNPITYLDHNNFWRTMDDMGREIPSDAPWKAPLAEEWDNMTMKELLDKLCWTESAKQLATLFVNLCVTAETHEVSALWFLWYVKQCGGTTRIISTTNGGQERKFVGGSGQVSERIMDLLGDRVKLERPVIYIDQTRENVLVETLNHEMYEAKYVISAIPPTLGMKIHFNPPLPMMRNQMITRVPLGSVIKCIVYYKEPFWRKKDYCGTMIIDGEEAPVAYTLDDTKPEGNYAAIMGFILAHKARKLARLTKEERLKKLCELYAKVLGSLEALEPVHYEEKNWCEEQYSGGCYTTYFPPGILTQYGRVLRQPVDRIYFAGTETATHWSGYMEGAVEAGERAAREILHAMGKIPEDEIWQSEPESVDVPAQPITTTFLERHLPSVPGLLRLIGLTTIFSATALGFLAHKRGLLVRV

MAO-B [2] = molecular target: T2, MAO-B; settings: read-out: % inhibition at 1000 μM
From the text: fluorescence, kynuramine to 4-hydroxyquinoline on MAO-B

IC50 (MAO-A) [µM] | IC50 (MAO-B [1]) [µM] | inhibition at 1000 µM (MAO-B [2]) [%] | SMILES
578.4 ± 2.01 | 860.7 ± 3.7 | – | O=c1c(O[C@@H]2O[C@H](CO)[C@H](O)[C@H](O)[C@H]2O)c(-c2ccc(O)cc2)oc2cc(O)cc(O)c12 [compound 2, trifolin]
108.9 ± 0.21 | 242.2 ± 0.78 | – | C[C@@H]1O[C@@H](O[C@H]2[C@H](Oc3c(-c4ccc(O)cc4)oc4cc(O)cc(O)c4c3=O)O[C@H](CO)[C@@H](O)[C@@H]2O)[C@H](O)[C@H](O)[C@H]1O [compound 3, kaempferol-3-neohesperidoside]
584 ± 11.8 | – | 43.5 ± 5.2 | OCCc1ccc(O[C@@H]2O[C@H](CO)[C@@H](O)[C@H](O)[C@H]2O)cc1 [compound 4, icariside D2]
2.8 ± 0.13 | – | 20.7 ± 1.8 | CC[C@H](CC[C@@H](C)[C@H]1CC[C@H]2[C@@H]3CC=C4C[C@@H](O)CC[C@]4(C)[C@H]3CC[C@]12C)C(C)C [compound 5, β-sitosterol]

Reference: article PMC11723358, “Nelumbo nucifera Petals Ameliorate Depressive-like Symptom and Cognitive Deficit in Unpredictable Chronic Mild Stress Mouse Model” (Nutrients, 2024)
